According to patent US7230011B2, “Benzenesulfonic acid indol-5-yl esters as antagonists of the 5ht6 receptor” (Eli Lilly and Company, priority 2002, dated 2007):
Structures can show the parent of a compound that is named as a salt. Where two headings read alike, the source gives them in different places.

What was measured:
[1] = target: 5-HT6 receptor (Homo sapiens, UniProt P50406); conditions: cited from earlier work; for affinity for the 5-HT6 receptor: in words; for Ki: 5-HT6 receptor
[2] = system: stretching behavior; conditions: cited from earlier work; for block of stretching behavior induced by Ro 04-6790: methyl-scopolamine at doses known to be peripherally selective
[3] = cited from earlier work; for pharmacokinetics: in words
[4] = system: glutamate release in the prefrontal cortex; conditions: 10 mg/kg, sc; cited from earlier work
[5] = system: Morris water maze; conditions: in vivo; cited from earlier work
[6] = system: aged rats; conditions: cited from earlier work
[7] = system: yawning behavior; conditions: in vivo; cited from earlier work
[8] = system: rats with unilateral nigrostriatal 6-OH-DA lesions; conditions: cited from earlier work
[9] = system: object recognition test; conditions: in vivo; cited from earlier work
[10] = system: Male Sprague-Dawley rats; conditions: s.c., six-hour delay
[11] = target: 5-HT2A receptor (Homo sapiens, UniProt P28223); conditions: 5-HT6 versus 5-HT2A; cited from earlier work
Chain of 5-HT2A receptor (P28223 whole entry): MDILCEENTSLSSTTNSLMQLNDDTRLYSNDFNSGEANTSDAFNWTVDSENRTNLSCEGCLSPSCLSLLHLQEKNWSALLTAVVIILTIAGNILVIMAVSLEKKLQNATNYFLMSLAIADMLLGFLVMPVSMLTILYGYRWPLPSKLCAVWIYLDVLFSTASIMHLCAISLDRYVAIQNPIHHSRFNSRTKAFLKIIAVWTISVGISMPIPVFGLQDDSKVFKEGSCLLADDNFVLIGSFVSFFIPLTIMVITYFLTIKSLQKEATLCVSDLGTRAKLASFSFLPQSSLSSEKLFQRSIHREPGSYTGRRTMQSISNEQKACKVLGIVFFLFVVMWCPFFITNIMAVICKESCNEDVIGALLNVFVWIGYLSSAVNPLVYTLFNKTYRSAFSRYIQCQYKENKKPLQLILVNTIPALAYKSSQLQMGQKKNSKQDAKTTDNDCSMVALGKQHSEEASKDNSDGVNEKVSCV

Chain of 5-HT6 receptor (P50406 whole entry): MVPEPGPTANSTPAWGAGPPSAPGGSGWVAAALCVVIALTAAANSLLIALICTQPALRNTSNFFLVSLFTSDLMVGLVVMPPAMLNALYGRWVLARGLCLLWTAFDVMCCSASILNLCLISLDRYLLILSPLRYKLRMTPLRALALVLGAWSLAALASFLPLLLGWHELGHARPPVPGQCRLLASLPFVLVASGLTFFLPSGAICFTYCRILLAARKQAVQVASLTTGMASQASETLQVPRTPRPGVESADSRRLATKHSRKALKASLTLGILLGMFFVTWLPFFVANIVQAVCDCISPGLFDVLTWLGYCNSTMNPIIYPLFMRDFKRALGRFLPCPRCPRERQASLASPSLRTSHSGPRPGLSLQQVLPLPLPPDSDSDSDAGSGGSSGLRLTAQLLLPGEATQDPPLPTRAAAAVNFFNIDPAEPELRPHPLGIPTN

Cc1nc2n(c(=O)c1CCN1CCC(c3noc4cc(F)ccc34)CC1)CCCC2 [risperidone]
affinity for the 5-HT6 receptor [1]: do not have significant affinity

CN1[C@@H]2CC[C@H]1C[C@@H](OC(=O)C(CO)c1ccccc1)C2 (stereo partly shown) [atropine]
block of yawning and stretching behavior induced by antisense oligonucleotides targeting the 5-HT6 receptor ([2]; antisense icv to rats): blocked | block of stretching behavior induced by Ro 04-6790 [2]: blocked

CNc1cc(NS(=O)(=O)c2ccc(N)cc2)cc(NC)n1 [Ro 63-0563]
Ki ([1]; read-out: Ki): 12 nM | pharmacokinetics [3]: poor pharmacokinetics

CN1[C@@H]2C[C@@H](OC(=O)[C@H](CO)c3ccccc3)C[C@H]1[C@@H]1O[C@@H]12 [Scopolamine, scopolamine]
block of stretching behavior induced by Ro 04-6790 [2]: blocked

O=C(CCCN1CCC(O)(c2ccc(Cl)cc2)CC1)c1ccc(F)cc1 [haloperidol]
affinity for the 5-HT6 receptor [1]: do not have significant affinity

COc1ccc(NS(=O)(=O)c2sc3ccc(Cl)cc3c2C)cc1N1CCNCC1 [SB-271,046]
glutamate release in the prefrontal cortex [4]: increases glutamate release | bioavailable ([3]; in vivo): 80% | performance in the Morris water maze [5]: improved performance | spatial alternation operant behavior test [6]: improvements | yawning behavior induced by physostigmine [7]: potentiated the yawning behavior

Ro 04-6790
Ki ([1]; read-out: Ki): 50 nM | rotational behavior induced by L-DOPA or amphetamine ([8]; rat, in vivo): did not block | rotation behavior induced by scopolamine ([8]; rats, unilateral nigrostriatal 6-OH-DA lesions): block the rotation behavior | scopolamine induced performance deficits in the object recognition test [9]: reversed scopolamine induced performance deficits | stretching behavior ([2]; rat, in vivo): induced stretching behavior in a dose-dependent manner | pharmacokinetics [3]: poor pharmacokinetics

Nc1c2c(nc3ccccc13)CCCC2 [Tacrine, tacrine]
retention ([10]; 3 mg/kg): not | retention ([10]; 10 mg/kg): significantly improved retention

CN1CCC(c2cn(C)c3ccc(OS(=O)(=O)c4c(F)cccc4F)cc23)CC1.O=C(O)C(=O)O
melting point: 195 to 198 °C (dec.)

CN1CCC(c2cn(S(C)(=O)=O)c3ccc(OS(=O)(=O)c4ccccc4)cc23)CC1.O=C(O)C(=O)O
melting point: 95 to 99 °C

CN1CCC(c2c[nH]c3ccc(OS(=O)(=O)c4ccc(Cl)cc4)cc23)CC1 [Example 37, 4-Chlorobenzenesulfonic acid 3-(1-methylpiperidin-4-yl)-1H-indol-5-yl ester]
melting point: 182 to 183.5 °C

CN1CCC(c2c[nH]c3ccc(OS(=O)(=O)c4ccc(I)cc4)cc23)CC1 [Example 36, 4-Iodobenzenesulfonic acid 3-(1-methylpiperidin-4-yl)-1H-indol-5-yl ester]
melting point: 174 to 176 °C

CN1CC=C(c2c[nH]c3ccc(OS(=O)(=O)c4ccccc4)cc23)CC1
melting point: 186 to 190 °C

Cc1[nH]c2ccc(OS(=O)(=O)c3c(F)cccc3F)cc2c1C1CCN(C)CC1 (as salt: hydrochloride) [Example 31, 2,6-Difluorobenzenesulfonic acid 2-methyl-3-(1-methylpiperidin-4-yl)-1H-indol-5-yl ester]
melting point: 138 °C (dec.)

CN1CCC(c2c[nH]c3ccc(OS(=O)(=O)c4ccc(F)cc4F)cc23)CC1 [Example 35, 2,4-Difluorobenzenesulfonic acid 3-(1-methylpiperidin-4-yl)-1H-indol-5-yl ester]
melting point: 163 to 164 °C

CN1CCC(c2cn(C)c3ccc(OS(=O)(=O)c4ccccc4)cc23)CC1.O=C(O)C(=O)O
melting point: 135 to 142 °C

Cc1cc(OS(=O)(=O)c2ccccc2)cc2c(C3CCN(C)CC3)c[nH]c12 [Example 62, Benzenesulfonic Acid 7-methyl-3-(1-methylpiperidin-4-yl)-1H-indol-5-yl Ester]
melting point: 118 °C

CN1CCC(c2cn(Cc3ccc(F)cc3F)c3ccc(OS(=O)(=O)c4ccccc4)cc23)CC1.O=C(O)C(=O)O
melting point: 141 to 144 °C

CC(C)n1cc(C2CCN(C)CC2)c2cc(OS(=O)(=O)c3ccccc3)ccc21.O=C(O)C(=O)O
melting point: 103 to 107 °C

CN1CCC(c2cn(Cc3ccccc3)c3ccc(OS(=O)(=O)c4ccccc4)cc23)CC1.Cl
melting point: 227 to 230 °C

CCc1[nH]c2ccc(OC)cc2c1CCN(C)C [N,N-dimethyl-2-ethyl-5-methoxytryptamine]
selectivity versus the 5-HT2A receptor [11]: 3.5 fold | Ki [1]: 81 nM
